Measured values as given in patent US7863453B2, “Tartrate salt of isofagomine and methods of use” (Amicus Therapeutics, Inc., priority 2006, dated 2011).
Where “and” joins values, the source holds several entries; their conditions need not be identical. Equal values may be shown once. Where a name gives a salt, the structure may show the parent alone. Read-outs that look alike come from different tables or passages of the source.

Tests used:
[1] = Phase I single ascending dose study, pharmacokinetics; format: in vivo, human
Experimental: (§1) Isofagomine tartrate is a pharmacological chaperone in development for the treatment of the lysosomal storage disorder Gaucher disease. Using cell-based and animal models we have shown that isofagomine increases cellular levels of glucocerebrosidase (GCase), the enzyme deficient in Gaucher disease. Randomized double-blind Phase I clinical studies were performed in 72 healthy volunteers, (39 male, 33 female). Isofagomine tartrate was orally administered as an aqueous solution. In a first-in-human single ascending dose study, doses of 8, 25, 75, 150 (two cohorts), and 300 mg were administered (6 active, 2 placebo in each cohort). In a multiple ascending dose study, doses of 25, 75, and 225 mg were administered daily for seven days (6 active, 2 placebo in each cohort).
(§2) Mean plasma levels peaked at 3.4 hr. […] (SEM: 2 hr.).

[2] = Phase I multiple ascending dose study, pharmacokinetics; format: in vivo, human; details: after 7 days of oral administration
Experimental: as §1, §2

GCase = molecular target: T1, GCase (Homo sapiens, UniProt P04062); assay: Phase I multiple-dose study, GCase activity in isolated white blood cells; format: in vivo
T1 construct: endogenous in cells; host or cells: isolated white blood cells of healthy volunteers dosed orally
T1 sequence (P04062 40-536): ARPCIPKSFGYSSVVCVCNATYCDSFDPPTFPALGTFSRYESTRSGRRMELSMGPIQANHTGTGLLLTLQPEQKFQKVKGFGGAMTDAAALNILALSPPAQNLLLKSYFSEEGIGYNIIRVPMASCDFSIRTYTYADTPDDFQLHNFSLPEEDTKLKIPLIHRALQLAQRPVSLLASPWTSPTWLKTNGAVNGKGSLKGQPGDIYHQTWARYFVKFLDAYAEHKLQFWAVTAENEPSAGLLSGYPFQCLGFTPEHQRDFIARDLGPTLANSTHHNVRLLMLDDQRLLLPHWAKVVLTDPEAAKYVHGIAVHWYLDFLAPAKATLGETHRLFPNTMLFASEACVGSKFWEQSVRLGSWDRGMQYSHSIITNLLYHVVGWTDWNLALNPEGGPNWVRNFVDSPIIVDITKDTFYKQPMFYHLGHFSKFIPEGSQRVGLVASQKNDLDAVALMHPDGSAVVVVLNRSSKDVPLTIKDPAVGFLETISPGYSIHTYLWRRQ
Experimental: as §1
In the multiple-dose study, GCase activity in isolated white blood cells was measured at days 1, 3, 5 and 7 during administration of isofagomine tartrate, and at days 9, 14 and 21 during the post-treatment washout period. […] The increase in enzyme level was dose-related, reaching approximately 3.5-fold above baseline levels.

[3] = Moisture uptake studies (saturated salt solutions); format: physicochemical; details: for Weight gain (%): single samples; for Average weight gain (%): average of 3 samples
Description: The moisture uptake test results of six different isofagomine tartrate samples prepared according to present invention are summarized in Tables 4 and 5.

mutant GCase = assay: Ex vivo response study, GCase levels in macrophages derived from Gaucher patients; format: cell-based, human
Experimental: The intracellular enhancement activity of isofagomine L-(+)-tartrate was investigated with fibroblasts established from Gaucher patients. To evaluate the effects of IFG on mutant GCase levels, an ex vivo response study with macrophages and EBV-transformed lymphoblasts derived from peripheral leukocytes of 40 patients was conducted.
The study included 21 males with type I Gaucher disease, 1 person with type III Gaucher disease, and 18 females with type I Gaucher disease. Patients ranged in age from 7 to 83 years, and 38 of 40 patients were on enzyme replacement therapy (ERT).

[4] = Phase I clinical studies in healthy volunteers, safety; format: in vivo, human
Experimental: as §1

[5] = Powder characteristics (density, flowability); format: physicochemical
Description: Meanwhile, isofagomine tartrate according to the present invention has good powder characteristics, e.g., crystal size, density, and flowability, that are suitable for a pharmaceutical manufacturing process. Tables 2 and 3 summarize powder characteristics of an isofagomine tartrate sample prepared according to the present invention. […] Most batches provided more than 98%, or at minimum 90%, of isofagomine tartrate with a particle size of about 1200 μm or less.

[6] = animals, background statement; cited from earlier work
[7] = molecular target: T2, recombinant human acid β-glucosidase (GCase) (Homo sapiens, UniProt P04062); details: background statement; cited from earlier work
T2 sequence (P04062 40-536): T1 sequence (P04062 40-536)

SMILES: OC[C@H]1CNC[C@@H](O)[C@@H]1O [isofagomine tartrate, Isofagomine tartrate]
- Tmax ([1]; both sexes, human, plasma, single-dose study, oral, SEM 0.6 hr, read-out: time at which mean plasma levels peaked (Tmax)): 3.4 h
- half-life ([1]; both sexes, human, plasma, single-dose study, oral, SEM 2 hr, read-out: plasma elimination half-life (converted)): 14 h
- systemic exposure via the oral route ([1]; healthy volunteers): good systemic exposure
- plasma AUC and Cmax versus dose ([1]; single-dose study, 8-300 mg): linearly correlated with administered dose
- pharmacokinetic behavior versus dose [2]: linear with dose
- increase in GCase level above baseline (GCase; isolated white blood cells, healthy volunteers, 25-225 mg daily for seven days, dose-related, maximum reached): approximately 3.5 fold
- GCase levels after removal of the drug (GCase; post-treatment washout period): return to near baseline levels by day 21
- hygroscopicity [3]: not hygroscopic
- Weight gain (%) ([3]; NaBr saturated solution, 24 hours, RH 59%, 20.5 °C): 0.06% and 0.00% and 0.05%
- Average weight gain (%) ([3]; NaBr saturated solution, 24 hours, RH 59%): 0.04%
- Weight gain (%) ([3]; NaBr saturated solution, 48 hours, RH 59%, 20.8 °C): 0.04% and 0.02% and 0.10%
- Average weight gain (%) ([3]; NaBr saturated solution, 48 hours, RH 59%): 0.05%
- Weight gain (%) ([3]; NaBr saturated solution, 8 days, RH 59%, 20.2 °C): 0.06% and 0.07% and 0.10%
- Average weight gain (%) ([3]; NaBr saturated solution, 8 days, RH 59%): 0.08%
- Weight gain (%) ([3]; NaCl saturated solution, 24 hours, RH 72%, 20.5 °C): 0.02% and 0.00% and 0.08%
- Average weight gain (%) ([3]; NaCl saturated solution, 24 hours, RH 72%): 0.04%
- Weight gain (%) ([3]; NaCl saturated solution, 48 hours, RH 71%, 20.8 °C): 0.05% and 0.00% and 0.8%
- Average weight gain (%) ([3]; NaCl saturated solution, 48 hours, RH 71%): 0.05%
- Weight gain (%) ([3]; NaCl saturated solution, 8 days, RH 72%, 20.2 °C): 0.10% and 0.00% and 0.15%
- Average weight gain (%) ([3]; NaCl saturated solution, 8 days, RH 72%): 0.08%
- moisture uptake ([3]; after exposure to 75% RH for 8 days): about 0.08%
- increase in GCase levels (average) (mutant GCase; macrophages from Gaucher patients, 32 of 34 responding, treated 5 days, dose-dependent): 2.8 fold
- serious adverse events ([4]; both studies): No serious adverse events occurred
- treatment-emergent adverse events ([4]; both studies): mostly mild
- tolerability ([4]; healthy volunteers, oral aqueous solution, single 8-300 mg and 25-225 mg daily for seven days): generally well tolerated at all doses
- Bulk Density [5]: 0.44 g/mL
- Carr Index [5]: 15%
- Tap Density [5]: 0.52 g/mL
- Bulk Density ([5]; listed as Isofagomine tartrate): around 0.44 g/ml
- Carr Index ([5]; listed as Isofagomine tartrate): 15%

SMILES: OC[C@H]1CNC[C@@H](O)[C@@H]1O [isofagomine, (3R,4R,5R)-5-(hydroxymethyl)-3,4-piperidinediol]
- accumulation [2]: no unexpected accumulation
- effect on GCase levels in cells from patients with different genotypes (mutant GCase; N370S/N370S, N370S/L444P, N370S/84insG, N370S/R163X, N370S/Y212H, L444P/del 136T, L444P/F216Y, L444P/L174F, G202R/R463C, K79N/complex B exon 9/10): significantly increased GCase levels
- concentration at maximum enhancement of GCase (mutant GCase; macrophages): about 30 μM
- blood-brain barrier crossing [6]: cross the blood-brain barrier
- inhibition of GCase [7]: potent inhibitor
